Test results: the NIST ThermoML archive (doi:10.1021/je6005423)
Numbers after ± are expanded uncertainties.

Columns and labels:
[1] = Crystal
[2] = Molar enthalpy of transition or fusion; conditions: Crystal
[3] = molar heat capacity at constant pressure; conditions: 101.33 kPa

CN(C)c1ccncc1 [4-(dimethylamino)pyridine]
Conditions	Molar enthalpy of transition or fusion, Adiabatic calorimetry [kcal/mol]	Molar enthalpy of transition or fusion, DSC [kcal/mol]	Normal melting temperature, Adiabatic calorimetry [°C]	Normal melting temperature, DTA [°C]
[1]	–	–	113.94 ± 0.039	114.0 ± 0.5
[2]	5.17 ± 0.0693	5.17 ± 0.153	–	–

[3], Crystal
Conditions	molar heat capacity at constant pressure [J/K/mol]
80.03 K	64.47 ± 1.3
83.52 K	66.81 ± 1.3
86.44 K	69.05 ± 1.4
89.41 K	71.03 ± 1.4
92.44 K	72.95 ± 1.5
95.51 K	74.9 ± 1.5
98.51 K	76.86 ± 1.6
101.43 K	78.68 ± 1.6
104.42 K	80.51 ± 1.6
107.48 K	82.3 ± 1.6
110.47 K	83.92 ± 1.7
113.41 K	85.67 ± 1.7
116.41 K	87.31 ± 1.7
119.47 K	89.01 ± 1.7
122.49 K	90.57 ± 1.7
125.46 K	92.11 ± 1.8
128.49 K	93.69 ± 1.8
131.59 K	95.38 ± 1.8
134.65 K	96.78 ± 1.8
137.66 K	98.3 ± 1.8
140.65 K	99.76 ± 1.9
143.69 K	101.22 ± 1.9
146.8 K	102.9 ± 1.9
149.88 K	104.47 ± 1.9
152.93 K	105.97 ± 1.9
155.94 K	107.42 ± 2
158.93 K	108.62 ± 2
161.98 K	109.91 ± 2
165.1 K	111.54 ± 2
168.19 K	113.06 ± 2
171.25 K	114.49 ± 2
174.28 K	115.97 ± 2.1
177.29 K	117.2 ± 2.1
180.27 K	118.57 ± 2.1
183.32 K	120.19 ± 2.1
186.44 K	121.88 ± 2.1
189.53 K	123.23 ± 2.1
192.6 K	124.43 ± 2.2
195.65 K	125.95 ± 2.2
198.67 K	127.3 ± 2.2
201.68 K	128.65 ± 2.2
204.66 K	130 ± 2.2
207.72 K	131.46 ± 2.2
210.84 K	133.09 ± 2.3
213.94 K	134.61 ± 2.3
217.02 K	135.82 ± 2.3
220.08 K	139.06 ± 2.3
223.12 K	141.26 ± 2.4
226.12 K	143.32 ± 2.4
229.09 K	145.3 ± 2.4
232.06 K	146.84 ± 2.4
235.11 K	149.01 ± 2.5
238.15 K	150.96 ± 2.5
241.18 K	152.05 ± 2.5
244.19 K	153.79 ± 2.5
247.18 K	155.15 ± 2.5
250.16 K	156.56 ± 2.6
253.13 K	157.38 ± 2.6
256.16 K	158.57 ± 2.6
259.24 K	159.8 ± 2.6
262.29 K	161.74 ± 2.6
265.4 K	163.21 ± 2.6
268.51 K	165.52 ± 2.7
271.55 K	167.5 ± 2.7
274.51 K	168.7 ± 2.7
277.42 K	169.84 ± 2.7
280.39 K	171.69 ± 2.7
283.34 K	173.55 ± 2.8
286.27 K	175.43 ± 2.8
289.25 K	177.99 ± 2.8
292.28 K	179.13 ± 2.8
295.28 K	180.15 ± 2.9
298.29 K	181.32 ± 2.9
301.34 K	183.53 ± 2.9
304.44 K	184.83 ± 2.9
307.47 K	185.41 ± 2.9
310.42 K	187.12 ± 2.9
313.4 K	188.44 ± 3
316.42 K	189.79 ± 3
319.4 K	191.08 ± 3
322.4 K	192.54 ± 3
325.41 K	193.75 ± 3
328.42 K	194.7 ± 3
331.5 K	195.13 ± 3
334.53 K	196.95 ± 3.1
337.56 K	198.33 ± 3.1
340.67 K	200.84 ± 3.1
342.97 K	199.88 ± 3.1
343.66 K	201.99 ± 3.1
343.86 K	200.32 ± 3.1
345.56 K	201.09 ± 3.1
346.45 K	202.23 ± 3.1
346.7 K	203.24 ± 3.1
348.77 K	203.52 ± 3.1
349.62 K	204.76 ± 3.2
349.67 K	205.23 ± 3.2
351.86 K	205.79 ± 3.2
352.63 K	206.7 ± 3.2
352.69 K	207.19 ± 3.2
354.94 K	207.38 ± 3.2
355.72 K	208.46 ± 3.2
355.82 K	209.44 ± 3.2
358.07 K	209.19 ± 3.2
358.46 K	210.78 ± 3.2
359.14 K	211.21 ± 3.2
361.26 K	211.54 ± 3.2
361.64 K	213.95 ± 3.3
362.4 K	212.78 ± 3.3
364.46 K	214.96 ± 3.3
364.97 K	216.45 ± 3.3
365.52 K	215.57 ± 3.3
367.64 K	216.47 ± 3.3
368.27 K	219.21 ± 3.3
368.63 K	217.48 ± 3.3
370.81 K	219.17 ± 3.3
371.06 K	221.32 ± 3.4
371.59 K	220.81 ± 3.4
373.98 K	222.94 ± 3.4
374.28 K	223.05 ± 3.4
374.54 K	223.68 ± 3.4
377.12 K	225.02 ± 3.4
377.36 K	225 ± 3.4
377.66 K	225.68 ± 3.4
380.18 K	228.35 ± 3.5
380.23 K	226.87 ± 3.4
380.77 K	227.73 ± 3.4
383.33 K	231.81 ± 3.5

[3], Liquid, Small (less than 1 g) adiabatic calorimetry
Conditions	molar heat capacity at constant pressure [J/K/mol]
388.4 K	231.37 ± 1.6
389.73 K	233.89 ± 1.6
389.99 K	232.72 ± 1.6
390.88 K	233.99 ± 1.6
392.95 K	234.74 ± 1.6
393.17 K	234.28 ± 1.6
393.33 K	235.41 ± 1.6
395.77 K	236.28 ± 1.6
396.07 K	235.35 ± 1.6
396.35 K	235.97 ± 1.6
398.22 K	237.66 ± 1.6
399.18 K	236.11 ± 1.6
399.52 K	236.69 ± 1.6
402.29 K	237.05 ± 1.6
402.68 K	237.16 ± 1.6
